Reference: article PMC8251347, “Crystal structure of the ferredoxin reductase component of carbazole 1,9a-dioxygenase from Janthinobacterium sp. J3” (Acta Crystallographica. Section D, Structural Biology, 2021)

Target: T1, CARDO-RJ3 (ferredoxin reductase component of carbazole 1,9a-dioxygenase) (Janthinobacterium sp. J3, UniProt Q84II0)
T1 construct: gene carAd; full length, 329 residues, N-terminal His tag kept, expressed in E. coli (plasmid pEJ3NAd for the SeMet protein), monomer in solution; contains plant-type [2Fe-2S] cluster
T1 sequence (Q84II0 1-329): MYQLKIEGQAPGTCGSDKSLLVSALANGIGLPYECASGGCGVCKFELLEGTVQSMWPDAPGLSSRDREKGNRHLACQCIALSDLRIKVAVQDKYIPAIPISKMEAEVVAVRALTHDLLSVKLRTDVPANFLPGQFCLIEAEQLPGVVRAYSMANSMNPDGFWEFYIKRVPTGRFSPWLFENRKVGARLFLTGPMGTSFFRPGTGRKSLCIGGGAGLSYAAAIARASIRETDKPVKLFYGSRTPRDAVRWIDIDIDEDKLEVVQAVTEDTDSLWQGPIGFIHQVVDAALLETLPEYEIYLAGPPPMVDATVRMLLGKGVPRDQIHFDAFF
Assay: X-ray crystallography, […] A (type I crystal)
Conditions: FAD-binding domain site; Ser151, Tyr165, Lys167, Ser217 hydrogen bonds; Phe135 and Phe328 stacking; [2Fe-2S] cluster present; no NAD(P)H

`Cc1cc2nc3c(=O)[nH]c(=O)nc-3n(C[C@H](O)[C@H](O)[C@H](O)COP(=O)(O)OP(=O)(O)OC[C@H]3O[C@@H](n4cnc5c(N)ncnc54)[C@H](O)[C@@H]3O)c2cc1C` [FAD] was tested, and the “X-ray crystallography, 2.6 A (type I crystal)” value was “The type I structure contained the [2Fe-2S] cluster and FAD”.
